According to ChEMBL document CHEMBL1130830, “Broad spectrum matrix metalloproteinase inhibitors: an examination of succinamide hydroxamate inhibitors with P1 C alpha gem-disubstitution” (Bioorg Med Chem Lett, 1998):

Assays:
[1] = biological target: 72 kDa type IV collagenase (Homo sapiens, UniProt P08253); test: Inhibition of Matrix metalloprotease-2 (MMP-2)
Stromelysin-1 = Stromelysin-1 (Homo sapiens, UniProt P08254); test: Inhibition of Matrix metalloprotease-3 (MMP-3)
Interstitial collagenase = biological target: T1, Interstitial collagenase (Homo sapiens, UniProt P03956); test: Inhibition of matrix metalloprotease-1 (MMP-1)
T1 sequence (P03956 whole entry): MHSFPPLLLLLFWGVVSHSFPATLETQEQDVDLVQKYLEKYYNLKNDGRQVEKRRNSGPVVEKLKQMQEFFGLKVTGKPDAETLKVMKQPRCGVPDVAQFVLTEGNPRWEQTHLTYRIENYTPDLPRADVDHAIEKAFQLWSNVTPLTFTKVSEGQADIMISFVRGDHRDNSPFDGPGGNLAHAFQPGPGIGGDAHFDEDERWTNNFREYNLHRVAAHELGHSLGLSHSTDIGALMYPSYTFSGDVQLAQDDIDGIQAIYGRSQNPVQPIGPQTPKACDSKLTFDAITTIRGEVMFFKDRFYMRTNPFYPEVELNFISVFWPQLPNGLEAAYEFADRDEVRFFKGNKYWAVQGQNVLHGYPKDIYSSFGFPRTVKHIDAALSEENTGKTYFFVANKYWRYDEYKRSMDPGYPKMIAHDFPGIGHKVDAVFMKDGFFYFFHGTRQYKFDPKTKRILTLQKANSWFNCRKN

Sequence of Stromelysin-1 (P08254 whole entry): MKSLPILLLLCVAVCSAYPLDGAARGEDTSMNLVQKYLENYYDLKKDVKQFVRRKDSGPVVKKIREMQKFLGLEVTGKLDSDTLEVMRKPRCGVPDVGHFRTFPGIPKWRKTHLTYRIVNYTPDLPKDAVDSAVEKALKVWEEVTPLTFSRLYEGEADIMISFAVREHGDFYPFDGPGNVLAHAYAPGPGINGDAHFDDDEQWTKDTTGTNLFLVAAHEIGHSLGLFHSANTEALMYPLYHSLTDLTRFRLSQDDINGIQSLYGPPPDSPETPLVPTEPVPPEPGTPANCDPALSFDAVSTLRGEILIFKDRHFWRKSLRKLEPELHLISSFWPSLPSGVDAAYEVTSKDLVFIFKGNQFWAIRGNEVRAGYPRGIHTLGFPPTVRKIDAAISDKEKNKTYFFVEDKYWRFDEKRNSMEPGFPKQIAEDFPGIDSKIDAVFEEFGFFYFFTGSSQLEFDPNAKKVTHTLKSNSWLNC
Sequence of 72 kDa type IV collagenase (P08253 whole entry): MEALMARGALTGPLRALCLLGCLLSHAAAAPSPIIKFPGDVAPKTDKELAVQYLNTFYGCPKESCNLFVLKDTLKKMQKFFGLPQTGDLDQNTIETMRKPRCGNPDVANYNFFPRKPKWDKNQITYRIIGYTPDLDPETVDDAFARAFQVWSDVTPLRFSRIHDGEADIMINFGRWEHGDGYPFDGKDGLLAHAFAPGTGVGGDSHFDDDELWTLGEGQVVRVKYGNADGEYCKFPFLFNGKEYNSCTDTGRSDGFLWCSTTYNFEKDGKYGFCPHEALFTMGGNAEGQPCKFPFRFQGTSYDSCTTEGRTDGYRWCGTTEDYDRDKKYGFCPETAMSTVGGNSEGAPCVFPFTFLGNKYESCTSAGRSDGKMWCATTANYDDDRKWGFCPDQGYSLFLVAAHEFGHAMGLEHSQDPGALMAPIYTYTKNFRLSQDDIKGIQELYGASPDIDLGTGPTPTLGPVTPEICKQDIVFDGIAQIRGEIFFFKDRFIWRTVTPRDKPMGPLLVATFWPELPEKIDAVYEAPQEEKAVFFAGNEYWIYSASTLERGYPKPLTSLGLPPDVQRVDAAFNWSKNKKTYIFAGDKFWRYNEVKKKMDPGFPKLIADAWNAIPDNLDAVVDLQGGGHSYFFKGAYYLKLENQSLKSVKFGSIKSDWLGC

SMILES | IC50 [1] [nM] | IC50 (Stromelysin-1) [nM] | IC50 (Interstitial collagenase) [nM]
C=CCC(CC=C)(C(=O)NO)[C@@H](CC(C)C)C(=O)N[C@@H](Cc1ccccc1)C(=O)NC | 110 | 2600 | 550
C=CC[C@](C)(C(=O)NO)[C@@H](CC(C)C)C(=O)N[C@@H](CC1CCCCC1)C(=O)NCCc1ccccc1 | 64 | 160 | 110
C=CC[C@](C)(C(=O)NO)[C@@H](CC(C)C)C(=O)N[C@@H](CC1CCCCC1)C(=O)NCCc1ccc(S(N)(=O)=O)cc1 | 23 | 15 | 6.9
C=CC[C@@](C)(C(=O)NO)[C@@H](CC(C)C)C(=O)N[C@@H](Cc1ccccc1)C(=O)NC | 66 | 420 | 52
C=CC[C@](C)(C(=O)NO)[C@@H](CC(C)C)C(=O)N[C@H](C(=O)Nc1ccccc1)C(C)(C)C | 6.2 | 95 | 50
C=CC[C@](C)(C(=O)NO)[C@@H](CC(C)C)C(=O)N[C@H](C(=O)NC)C(C)(C)C | 2.5 | 480 | 2.7
C=CC[C@](C)(C(=O)NO)[C@@H](CC(C)C)C(=O)N[C@@H](Cc1ccccc1)C(=O)Nc1ccccc1 | 52 | 91 | 120

Results, then the molecule that gave them:

IC50 [1] [nM] | IC50 (Stromelysin-1) [nM] | IC50 (Interstitial collagenase) [nM] | SMILES
50 | 170 | 37 | CNC(=O)[C@H](Cc1ccccc1)NC(=O)[C@H](CC(C)C)C1(C(=O)NO)CCCC1
1.3 | 50 | 1.3 | CNC(=O)[C@H](Cc1ccccc1)NC(=O)[C@H](CC(C)C)[C@H](C)C(=O)NO
2.3 | 170 | 9.4 | CNC(=O)[C@H](Cc1ccccc1)NC(=O)[C@H](CC(C)C)C(C)(C)C(=O)NO
4.2 | 25 | 3.1 | C=CC[C@](C)(C(=O)NO)[C@@H](CC(C)C)C(=O)N[C@@H](Cc1ccccc1)C(=O)NC
35 | 59 | 35 | C=CC[C@@H](C(=O)NO)[C@@H](CC(C)C)C(=O)N[C@@H](Cc1ccccc1)C(=O)NC
1.8 | 12 | 2.2 | C=CCC(C(=O)NO)C(CC(C)C)C(=O)N[C@@H](Cc1ccccc1)C(=O)NC (single isomer, unassigned)
